Source: ChEMBL document CHEMBL1201862, “PubChem BioAssay data set” (2004)
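These data come from cells grown in 96-well plates and exposed to compound for 48 hours at five concentrations. The concentration for 50% growth inhibition is given as GI50.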 Calls of active or inactive are those of the source. No stated cut-off is given here; in the data, active = GI50 up to about 1.1 µM and inactive = higher.

Experiments:
Assay in all cases: DTP human tumour cell line panel, 48 h
[1] = tested on: SK-MEL-2
[2] = tested on: 786-0
[3] = tested on: CCRF-CEM
[4] = tested on: TK-10
[5] = tested on: NCI-H522
[6] = tested on: HCC 2998
[7] = tested on: A549
[8] = tested on: ACHN
[9] = tested on: CAKI-1
[10] = tested on: OVCAR-5
[11] = tested on: SW-620
[12] = tested on: MDA-MB-435
[13] = tested on: HOP-62
[14] = tested on: HCT-116
[15] = tested on: MOLT-4
[16] = tested on: COLO 205
[17] = tested on: SK-MEL-28
[18] = tested on: LOX IMVI
[19] = tested on: RXF 393
[20] = tested on: UACC-257

| Structure (SMILES) | GI50 [1] | GI50 [2] | GI50 [3] | GI50 [4] | GI50 [5] | GI50 [6] | GI50 [7] | GI50 [8] | GI50 [9] | GI50 [10] | GI50 [11] | GI50 [12] | GI50 [13] | GI50 [14] | GI50 [15] | GI50 [16] | GI50 [17] | GI50 [18] | GI50 [19] | GI50 [20] |
| --- | --- | --- | --- | --- | --- | --- | --- | --- | --- | --- | --- | --- | --- | --- | --- | --- | --- | --- | --- | --- |
| COCCOCc1nc(C#N)c(N)o1 | > 100 µM (inactive) | > 100 µM (inactive) | > 100 µM (inactive) | > 100 µM (inactive) | > 10 µM (inactive) | > 100 µM (inactive) | > 100 µM (inactive) | > 100 µM (inactive) | > 100 µM (inactive) | > 100 µM (inactive) | > 100 µM (inactive) | > 100 µM (inactive) | > 100 µM (inactive) | > 100 µM (inactive) | > 100 µM (inactive) | > 100 µM (inactive) | > 100 µM (inactive) | > 100 µM (inactive) | > 100 µM (inactive) | > 100 µM (inactive) |
| COC(=O)[C@@](NC(=O)OCc1ccccc1)([C@H](C)O)C(F)(F)F | > 100 µM (inactive) | > 100 µM (inactive) | 57.4 µM (inactive) | > 100 µM (inactive) | > 100 µM (inactive) | > 100 µM (inactive) | > 100 µM (inactive) | > 100 µM (inactive) | > 100 µM (inactive) | > 100 µM (inactive) | > 100 µM (inactive) | > 100 µM (inactive) | > 100 µM (inactive) | > 100 µM (inactive) | > 100 µM (inactive) | > 100 µM (inactive) | > 100 µM (inactive) | > 100 µM (inactive) | 53.5 µM (inactive) | > 100 µM (inactive) |
| COc1cnc2cc(C(=O)O)c3ccccc3c2c1 | > 100 µM (inactive) | > 100 µM (inactive) | > 100 µM (inactive) | > 100 µM (inactive) | > 100 µM (inactive) | > 100 µM (inactive) | > 100 µM (inactive) | > 100 µM (inactive) | > 100 µM (inactive) | > 100 µM (inactive) | > 100 µM (inactive) | > 100 µM (inactive) | > 100 µM (inactive) | > 100 µM (inactive) | > 100 µM (inactive) | > 100 µM (inactive) | > 100 µM (inactive) | > 100 µM (inactive) | > 100 µM (inactive) | > 100 µM (inactive) |
| O=C([C@H](O)[C@@H](O)c1cccc(Cl)c1)C12CC3CC(CC(C3)C1)C2 | 1.95 µM (inactive) | 1.05 µM (active) | 1.14 µM (inactive) | 1.98 µM (inactive) | 2.23 µM (inactive) | 2.11 µM (inactive) | 2.19 µM (inactive) | 1.91 µM (inactive) | 2.08 µM (inactive) | 3.1 µM (inactive) | 2.06 µM (inactive) | 2.58 µM (inactive) | 2.69 µM (inactive) | 1.86 µM (inactive) | 2.84 µM (inactive) | 2.13 µM (inactive) | 3.21 µM (inactive) | 1.22 µM (inactive) | 2.37 µM (inactive) | 2.21 µM (inactive) |
| CS(=O)(=O)N1CC(CCl)c2ccc(NO)cc21 (stereo not given) | 17.7 µM (inactive) | 13.4 µM (inactive) | 1.83 µM (inactive) | 21.3 µM (inactive) | 4.17 µM (inactive) | 14.4 µM (inactive) | 35.2 µM (inactive) | 7.94 µM (inactive) | 12.6 µM (inactive) | 15.1 µM (inactive) | 12.6 µM (inactive) | 16.6 µM (inactive) | 17.7 µM (inactive) | 14.7 µM (inactive) | 3.48 µM (inactive) | 18 µM (inactive) | 19.1 µM (inactive) | 13.3 µM (inactive) | 3.37 µM (inactive) | 19.5 µM (inactive) |
| CC(C)(CCc1nc2ccccc2[nH]1)C(=O)O | > 100 µM (inactive) | > 100 µM (inactive) | > 100 µM (inactive) | > 100 µM (inactive) | > 100 µM (inactive) | > 100 µM (inactive) | > 100 µM (inactive) | > 100 µM (inactive) | > 100 µM (inactive) | > 100 µM (inactive) | > 100 µM (inactive) | > 100 µM (inactive) | > 100 µM (inactive) | > 100 µM (inactive) | > 100 µM (inactive) | > 100 µM (inactive) | > 100 µM (inactive) | > 100 µM (inactive) | > 100 µM (inactive) | > 100 µM (inactive) |
| CC(=O)c1c(C)cn(S(=O)(=O)NC(=O)Nc2nncs2)c1C | > 100 µM (inactive) | > 100 µM (inactive) | 23.3 µM (inactive) | > 100 µM (inactive) | > 100 µM (inactive) | > 100 µM (inactive) | > 100 µM (inactive) | > 100 µM (inactive) | > 100 µM (inactive) | > 100 µM (inactive) | > 100 µM (inactive) | > 100 µM (inactive) | > 100 µM (inactive) | > 100 µM (inactive) | > 100 µM (inactive) | > 100 µM (inactive) | > 100 µM (inactive) | > 100 µM (inactive) | > 100 µM (inactive) | > 100 µM (inactive) |
